Where two headings read alike, the source gives them in different places.
Key:
[1] = test system: intracellular MRSA; assay type: cell-based, Staphylococcus aureus; details: for %GFP+ rep 1 / z-scoreMRSA+ rep 1: replicate 1; for %GFP+ rep 2 / z-scoreMRSA+ rep 2: replicate 2; for %GFP+ rep 3 / z-scoreMRSA+ rep 3: replicate 3; for z-scoreMRSA+ mean: mean of 3 replicates
How it was run: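 HeLa cells infected with GFP-MRSA (MOI ~6.8), gentamicin-cleared, then incubated overnight at 37°C with inhibitors plus 5 µg/ml gentamicin; DMSO as negative control, triplicates. Flow cytometry gave % GFP-positive cells and cell count (viability surrogate); hits by plate z-score (MRSA ≤ -2, HeLa count ≥ -3).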

[2] = test system: HeLa cells; assay: Compound screen by flow cytometry: HeLa cell count as surrogate readout of cell viability (z-scoreHeLa); assay type: cell-based, human; details: for cell count rep 1 / z-scoreHeLa rep 1: replicate 1; for cell count rep 2 / z-scoreHeLa rep 2: replicate 2; for cell count rep 3 / z-scoreHeLa rep 3: replicate 3; for z-scoreHeLa mean: mean of 3 replicates
How it was run: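 HeLa cells were infected with GFP-MRSA (mean MOI 6.8 ± 4.6) for 1 h, and extracellular bacteria were killed with 30 µg/ml gentamicin. Cells were then incubated overnight with kinase inhibitors in 5 µg/ml gentamicin, in triplicate against DMSO controls. Flow-cytometric cell count served as a viability surrogate, expressed as a plate z-score.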

[3] = PKIS compound screen raw data, MRSA-infected HeLa cells
[4] = Yes/No: effect without cell death
[5] = compound screen, MRSA-infected HeLa cells
[6] = PKIS compound screen raw data, HeLa cell count
[7] = compound screen, HeLa cell count
[8] = PKIS compounds raw data, MRSA-infected HeLa cells
[9] = PKIS compounds raw data, HeLa cell count
[10] = PKIS compound screen, MRSA-infected HeLa cells
[11] = PKIS compound screen, Yes/No call (effect without cell death)
[12] = PKIS compound screen, HeLa cell count
[13] = PKIS compound screen, Yes/No call

| SMILES | %GFP+ rep 1 [1, 3] | %GFP+ rep 2 [1, 3] | %GFP+ rep 3 [1, 3] | effect ([1]; Yes/No call from z-scoreMRSA+) | hit [1, 4] | z-scoreMRSA+ mean [1, 5] | z-scoreMRSA+ rep 1 [1, 5] | z-scoreMRSA+ rep 2 [1, 5] | z-scoreMRSA+ rep 3 [1, 5] | cell count rep 1 [2, 6] | cell count rep 2 [2, 6] | cell count rep 3 [2, 6] | cell death ([2]; Yes/No call from z-scoreHeLa) | z-scoreHeLa mean [2, 7] | z-scoreHeLa rep 1 [2, 7] | z-scoreHeLa rep 2 [2, 7] | z-scoreHeLa rep 3 [2, 7] | %GFP+ rep 1 [1, 8] | %GFP+ rep 2 [1, 8] | %GFP+ rep 3 [1, 8] | further results |
| --- | --- | --- | --- | --- | --- | --- | --- | --- | --- | --- | --- | --- | --- | --- | --- | --- | --- | --- | --- | --- | --- |
| Nc1ncc(-c2ccncc2)c2scc(-c3ccc4c(c3)CCN4C(=O)Cc3ccccc3)c12 [GSK2592465A] | 23.8% | 25.0% | 22.8% | No | No | 0.14 | -0.34 | 0.58 | 0.18 | 4912 | 4633 | 5392 | No | 0.25 | 0.40 | 0.26 | 0.10 | – | – | – | – |
| Cn1cc(-c2cnc(N)c3c(-c4ccc5c(c4)CCN5C(=O)Cc4ccccc4)csc23)cn1 [GSK2593074A] | – | – | – | No | No | 2.45 | 3.72 | 2.64 | 0.98 | – | – | – | Yes | -3.02 | -3.54 | -2.95 | -2.56 | 24.8% | 21.4% | 19.2% | cell count rep 1 [2, 9]: 857; cell count rep 2 [2, 9]: 369; cell count rep 3 [2, 9]: 1620 |
| Cc1ccccc1CC(=O)N1CCc2cc(-c3cn(C)c4ncnc(N)c34)ccc21 [GSK2603346A] | 20.6% | 20.8% | 20.5% | – | – | – | – | – | – | 19984 | 27840 | 38532 | – | – | – | – | – | – | – | – | z-scoreMRSA+ mean [1, 10]: 0.59; z-scoreMRSA+ rep 1 [1, 10]: 0.87; z-scoreMRSA+ rep 2 [1, 10]: 0.68; z-scoreMRSA+ rep 3 [1, 10]: 0.22; hit [1, 11]: No; effect ([1]; PKIS compound screen, Yes/No call on z-scoreMRSA+): No; z-scoreHeLa mean [2, 12]: -0.54; z-scoreHeLa rep 1 [2, 12]: -0.02; z-scoreHeLa rep 2 [2, 12]: -1.30; z-scoreHeLa rep 3 [2, 12]: -0.32; cell death ([2]; PKIS compound screen, Yes/No call on z-scoreHeLa): No |
| Cn1cc(-c2ccc3c(c2)CCN3C(=O)Cc2cccc(F)c2)c2c(N)ncnc21 [GSK2603358A] | – | – | – | – | – | – | – | – | – | – | – | – | – | – | – | – | – | 26.9% | 29.5% | 30.6% | effect [1, 13]: No; hit [1, 11]: No; z-scoreMRSA+ mean ([1]; PKIS compound screen): 0.42; z-scoreMRSA+ rep 1 ([1]; PKIS compound screen): -0.03; z-scoreMRSA+ rep 2 ([1]; PKIS compound screen): 0.66; z-scoreMRSA+ rep 3 ([1]; PKIS compound screen): 0.62; cell death [2, 13]: No; z-scoreHeLa mean ([2]; PKIS compound screen): 0.76; z-scoreHeLa rep 1 ([2]; PKIS compound screen): -0.12; z-scoreHeLa rep 2 ([2]; PKIS compound screen): 0.60; z-scoreHeLa rep 3 ([2]; PKIS compound screen): 1.79; cell count rep 1 [2, 9]: 5847; cell count rep 2 [2, 9]: 6919; cell count rep 3 [2, 9]: 8427 |
| Cn1cc(-c2ccc3c(c2)CCN3C(=O)Cc2ccccc2Cl)c2c(N)ncnc21 [GSK2608885A] | – | – | – | – | – | – | – | – | – | – | – | – | – | – | – | – | – | 27.6% | 29.0% | 29.1% | effect [1, 13]: No; hit [1, 11]: No; z-scoreMRSA+ mean ([1]; PKIS compound screen): 0.34; z-scoreMRSA+ rep 1 ([1]; PKIS compound screen): 0.11; z-scoreMRSA+ rep 2 ([1]; PKIS compound screen): 0.57; z-scoreMRSA+ rep 3 ([1]; PKIS compound screen): 0.34; cell death [2, 13]: No; z-scoreHeLa mean ([2]; PKIS compound screen): -0.08; z-scoreHeLa rep 1 ([2]; PKIS compound screen): -0.13; z-scoreHeLa rep 2 ([2]; PKIS compound screen): 0.00891; z-scoreHeLa rep 3 ([2]; PKIS compound screen): -0.13; cell count rep 1 [2, 9]: 5830; cell count rep 2 [2, 9]: 6021; cell count rep 3 [2, 9]: 5398 |
| COc1cccc(CC(=O)N2CCc3cc(-c4cn(C)c5ncnc(N)c45)ccc32)c1 [GSK2608899A] | 26.6% | 25.5% | 23.7% | No | No | 0.49 | 0.31 | 0.70 | 0.45 | 3096 | 2695 | 3225 | No | -1.14 | -0.91 | -1.24 | -1.27 | – | – | – | – |

From PMC10999543, “Identification of kinase modulators as host-directed therapeutics against intracellular methicillin-resistant Staphylococcus aureus” (Frontiers in Cellular and Infection Microbiology, 2024)
